Results from patent publication US20110288084A1, “[4-( 1-AMINO-ETHYL) - CYCLOHEXYL ] - METHYL - AMINES AS ANTIBACTERIALS” (ASTRAZENECA AB, priority 2008, published 2011).

The compounds below were run against Escherichia coli ParC/ParE tetramer protein (Escherichia coli, UniProt P0AFI2+P20083) (assay: E. coli ParC/ParE ATPase inhibition assay (malachite green phosphate detection)). Conditions: ATPase activity of ParE subunit of reconstituted ParC/ParE tetramer; 0.16 mM ATP; 24 hours at room temperature.
Chain of Escherichia coli ParC/ParE tetramer protein (P20083 whole entry): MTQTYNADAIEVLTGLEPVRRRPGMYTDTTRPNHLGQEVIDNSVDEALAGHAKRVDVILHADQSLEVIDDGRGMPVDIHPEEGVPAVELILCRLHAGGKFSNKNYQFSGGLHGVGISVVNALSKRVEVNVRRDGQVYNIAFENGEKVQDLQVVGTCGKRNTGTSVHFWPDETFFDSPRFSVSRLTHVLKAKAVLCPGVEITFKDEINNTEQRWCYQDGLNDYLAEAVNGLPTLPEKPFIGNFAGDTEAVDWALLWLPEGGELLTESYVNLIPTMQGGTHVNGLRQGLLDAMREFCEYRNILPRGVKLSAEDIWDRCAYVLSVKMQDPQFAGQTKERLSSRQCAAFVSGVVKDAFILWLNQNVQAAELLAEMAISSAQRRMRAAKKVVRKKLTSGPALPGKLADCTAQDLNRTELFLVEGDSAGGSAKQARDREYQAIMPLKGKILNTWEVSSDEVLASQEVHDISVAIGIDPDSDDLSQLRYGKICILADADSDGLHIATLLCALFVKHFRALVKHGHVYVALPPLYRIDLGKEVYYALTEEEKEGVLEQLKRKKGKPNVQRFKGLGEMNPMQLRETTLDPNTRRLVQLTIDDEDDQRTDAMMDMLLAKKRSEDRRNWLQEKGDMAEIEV
Chain of Escherichia coli ParC/ParE tetramer protein (P0AFI2 whole entry): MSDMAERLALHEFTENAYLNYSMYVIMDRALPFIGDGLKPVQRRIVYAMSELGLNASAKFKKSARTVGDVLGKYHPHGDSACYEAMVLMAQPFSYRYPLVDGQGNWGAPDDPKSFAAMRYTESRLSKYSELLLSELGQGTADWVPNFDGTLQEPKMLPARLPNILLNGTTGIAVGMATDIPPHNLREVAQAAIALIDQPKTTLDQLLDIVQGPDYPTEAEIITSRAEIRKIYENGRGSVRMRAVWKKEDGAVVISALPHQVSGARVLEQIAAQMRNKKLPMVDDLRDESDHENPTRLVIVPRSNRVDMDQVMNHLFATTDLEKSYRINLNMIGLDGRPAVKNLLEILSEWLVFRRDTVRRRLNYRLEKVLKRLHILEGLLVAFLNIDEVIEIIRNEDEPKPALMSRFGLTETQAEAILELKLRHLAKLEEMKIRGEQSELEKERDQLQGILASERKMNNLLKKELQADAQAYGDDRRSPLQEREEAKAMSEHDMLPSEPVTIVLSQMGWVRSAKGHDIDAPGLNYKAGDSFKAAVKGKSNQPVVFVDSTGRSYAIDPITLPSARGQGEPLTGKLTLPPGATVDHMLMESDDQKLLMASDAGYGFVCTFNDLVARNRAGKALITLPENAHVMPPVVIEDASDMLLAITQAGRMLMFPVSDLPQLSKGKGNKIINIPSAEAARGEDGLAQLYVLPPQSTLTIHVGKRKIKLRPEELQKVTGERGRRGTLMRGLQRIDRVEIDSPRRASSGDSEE
Format: biochemical
Text: The compounds of Formula (I) are of interest due to their antibacterial effects. The ability of the invention compounds disclosed herein to achieve an antibacterial effect may be evaluated with regard to their ability to inhibit the ParC enzyme of Escherichia coli using an assay based on the following protocol.
The assay utilizes the ATPase activity of the ParE subunit of reconstituted Escherichia coli ParC/ParE tetramer protein. Inhibition of ATPase activity may be monitored by reduced production of inorganic phosphate, a product of the ATPase reaction. Inorganic phosphate may be quantified using the ammonium molybdate/malachite green-based detection system. For determination of IC50 values, assays may be performed 384-well microtiter plates. Each well preferably contains a dilution range of the compound dissolved in DMSO. In addition, each well preferably contains: 20 mM Tris pH 8.0, 50 mM ammonium acetate, 0.16 mM ATP, 0.005% Brij-35, 8.0 mM magnesium chloride, 0.5 mM EDTA, 2.5% v/v glycerol, 5 mM dithiothreitol, 0.005 mg/mL sheared salmon sperm DNA, 0.5 nM E. coli ParC protein, 0.5 nM E. coli ParE protein. Final volume of assays is preferably 30 μL. Reactions may be incubated 24 hours at room temperature and then quenched with the addition of 45 μL malachite green reagent (Lanzetta, P. A., L. J. Alvarez, P. S. Reinach, and O. A. Candia (1979) Anal. Biochem. 100: 95-97) via a bulk reagent dispenser. Plates may be incubated 3-5 minutes at room temperature, and then absorbance at 650 nm may be measured using a Spectramax 384 plate reader.
When tested in an assay based on the one described above, the inhibitory activity of the following Examples was measured at the indicated IC50.

Structure (SMILES) | IC50
N#Cc1ccc2ccc(=O)n(CC(N)[C@H]3CC[C@H](NCc4ccc5c(n4)NC(=O)CO5)CC3)c2c1 (single isomer, unassigned; enantiomer b) [Example 4(b), Trans-1-(2-amino-2-(4-((3-oxo-3,4-dihydro-2H-pyrido[3,2-b][1,4]oxazin-6-yl)methylamino)cyclohexyl)ethyl)-2-oxo-1,2-dihydroquinoline-7-carbonitrile, enantiomer B] | 0.004 µM
Cc1cc(=O)n(CC(N)C2CCC(NCc3ccc4c(n3)NC(=O)CO4)CC2)c2cc(F)ccc12 (single isomer, unassigned; enantiomer a) [Example 10, Trans-6-((4-(1-amino-2-(7-fluoro-4-methyl-2-oxoquinolin-1(2H)-yl)ethyl)cyclohexylamino)methyl)-2H-pyrido[3,2-b][1,4]oxazin-3(4H)-one, enantiomer A] | 0.009 µM
N#Cc1ccc2ccc(=O)n(CC(N)[C@H]3CC[C@H](NCc4ccc5c(n4)NC(=O)CO5)CC3)c2c1 (single isomer, unassigned; enantiomer a) [Example 4(a), Trans-1-(2-amino-2-(4-((3-oxo-3,4-dihydro-2H-pyrido[3,2-b][1,4]oxazin-6-yl)methylamino)cyclohexyl)ethyl)-2-oxo-1,2-dihydroquinoline-7-carbonitrile, enantiomer A] | 0.032 µM
NC(Cn1c(=O)cnc2ccc(F)cc21)[C@H]1CC[C@H](NCc2ccc3c(n2)NC(=O)CO3)CC1 (single isomer, unassigned) [Example 5, Trans-6-((4-(1-amino-2-(7-fluoro-2-oxoquinoxalin-1(2H)-yl)ethyl)cyclohexylamino)methyl-2H-pyrido[3,2-b][1,4]oxazin-3(4H)-one, (+) enantiomer] | 0.024 µM
COc1cnc2ccc(=O)n(CC(N)[C@H]3CC[C@H](NCc4ccc5c(n4)NC(=O)CO5)CC3)c2c1 (single isomer, unassigned; enantiomer b) [Example 1(b), Trans-6-((4-(1-amino-2-(7-methoxy-2-oxo-1,5-naphthyridin-1(2H)-yl)ethyl)cyclohexylamino)methyl)-2H-pyrido[3,2-b][1,4]oxazin-3(4H)-one, enantiomer B] | 0.033 µM
N#Cc1ccc2ccc(=O)n(CC(N)C3CCC(NCc4ccc5c(n4)NC(=O)CS5)CC3)c2c1 (racemic) [Example 7, Trans-1-(2-amino-2-(4-((3-oxo-3,4-dihydro-2H-pyrido[3,2-b][1,4]thiazin-6-yl)methylamino)cyclohexyl)ethyl)-2-oxo-1,2-dihydroquinoline-7-carbonitrile] | 0.012 µM
COc1cnc2ccc(=O)n(CC(N)C3CCC(NCc4ncc5c(n4)NC(=O)CO5)CC3)c2c1 (racemic) [Example 8, Trans-2-((4-(1-amino-2-(7-methoxy-2-oxo-1,5-naphthyridin-1(2H)-yl)ethyl)cyclohexylamino)methyl)-6H-pyrimido[5,4-b][1,4]oxazin-7(8H)-one] | 0.017 µM
COc1cnc2ccc(=O)n(CC(N)[C@H]3CC[C@H](NCc4ccc5c(n4)NC(=O)CO5)CC3)c2c1 (single isomer, unassigned; enantiomer a) [Example 1(a), Trans-6-((4-(1-amino-2-(7-methoxy-2-oxo-1,5-naphthyridin-1(2H)-yl)ethyl)cyclohexylamino)methyl)-2H-pyrido[3,2-b][1,4]oxazin-3(4H)-one, enantiomer A] | 0.002 µM
COc1ccc2ncc(=O)n(CC(N)[C@H]3CC[C@H](NCc4ncc5c(n4)NC(=O)CO5)CC3)c2c1 (single isomer, unassigned; enantiomer a) [Example 3(a), Trans-2-((4-(1-amino-2-(7-methoxy-2-oxoquinoxalin-1(2H)-yl)ethyl)cyclohexylamino)methyl)-6H-pyrimido[5,4-b][1,4]oxazin-7(8H)-one, enantiomer A] | 0.016 µM
N#Cc1ccc2ccc(=O)n(CC(N)[C@H]3CC[C@H](NCc4ccc5c(n4)NC(=O)CS5)CC3)c2c1 (single isomer, unassigned; enantiomer b) [Example 7(b), Trans-1-(2-amino-2-(4-((3-oxo-3,4-dihydro-2H-pyrido[3,2-b][1,4]thiazin-6-yl)methylamino)cyclohexyl)ethyl)-2-oxo-1,2-dihydroquinoline-7-carbonitrile, enantiomer B] | 0.002 µM
COc1ccc2ncc(=O)n(CC(N)[C@H]3CC[C@H](NCc4ccc5c(n4)NC(=O)CO5)CC3)c2c1 (single isomer, unassigned; enantiomer a) [Example 2(a), Trans-6-((4-(1-amino-2-(7-methoxy-2-oxoquinoxalin-1(2H)-yl)ethyl)cyclohexylamino)methyl)-2H-pyrido[3,2-b][1,4]oxazin-3(4H)-one, enantiomer A] | 0.016 µM
NC(Cn1c(=O)cnc2ccc(F)cc21)C1CCC(NCc2ncc3c(n2)NC(=O)CO3)CC1 (single isomer, unassigned) [Example 6, Trans-2-((4-(1-amino-2-(7-fluoro-2-oxoquinoxalin-1(2H)-yl)ethyl)cyclohexylamino)methyl-6H-pyrimido[5,4-b][1,4]oxazin-7(8H)-one, (+) enantiomer] | 0.015 µM
COc1cnc2ccc(=O)n(CC(N)C3CCC(NCc4ccc5c(n4)NC(=O)CO5)CC3)c2c1 (racemic) [Example 1, Trans-6-((4-(1-amino-2-(7-methoxy-2-oxo-1,5-naphthyridin-1(2H)-yl)ethyl)cyclohexylamino)methyl)-2H-pyrido[3,2-b][1,4]oxazin-3(4H)-one] | 0.02 µM
N#Cc1ccc2ccc(=O)n(CC(N)C3CCC(NCc4ccc5c(n4)NC(=O)CO5)CC3)c2c1 (racemic) [Example 4, Trans-1-(2-amino-2-(4-((3-oxo-3,4-dihydro-2H-pyrido[3,2-b][1,4]oxazin-6-yl)methylamino)cyclohexyl)ethyl)-2-oxo-1,2-dihydroquinoline-7-carbonitrile] | 0.009 µM
NC(Cn1c(=O)ccc2ncc(Sc3ccccc3)cc21)C1CCC(NCc2ccc3c(n2)NC(=O)CO3)CC1 (single isomer, unassigned; enantiomer a) [Example 9, Trans-6-((4-(1-amino-2-(2-oxo-7-(phenylthio)-1,5-naphthyridin-1(2H)-yl)ethyl)cyclohexylamino)methyl)-2H-pyrido[3,2-b][1,4]oxazin-3(4H)-one, enantiomer A] | 0.006 µM
COc1ccc2ncc(=O)n(CC(N)[C@H]3CC[C@H](NCc4ccc5c(n4)NC(=O)CO5)CC3)c2c1 (single isomer, unassigned; enantiomer b) [Example 2(b), Trans-6-((4-(1-amino-2-(7-methoxy-2-oxoquinoxalin-1(2H)-yl)ethyl)cyclohexylamino)methyl)-2H-pyrido[3,2-b][1,4]oxazin-3(4H)-one, enantiomer B] | 0.004 µM
COc1ccc2ncc(=O)n(CC(N)[C@H]3CC[C@H](NCc4ncc5c(n4)NC(=O)CO5)CC3)c2c1 (single isomer, unassigned; enantiomer b) [Example 3(b), Trans-2-((4-(1-amino-2-(7-methoxy-2-oxoquinoxalin-1(2H)-yl)ethyl)cyclohexylamino)methyl)-6H-pyrimido[5,4-b][1,4]oxazin-7(8H)-one, enantiomer B] | 0.003 µM
